The results in this text go back to ChEMBL document CHEMBL3046594, “Bioactive metabolites from an endophytic fungus of Aspergillus species isolated from seeds of Gloriosa superba Linn” (Med Chem Res, 2013).

Calls of active or inactive are those of the source. The rule behind the calls is not given here.

Experiment [1] concerns Bacillus subtilis. The experiment can be described thus: Antibacterial activity against Bacillus subtilis MTCC 2451 assessed as growth inhibition at 5 ug/disk after 24 hr by disk diffusion method. Type of experiment: functional. Conditions: MTCC 2451, 24 h, read-out: DIZ.
Experiment [2] deals with Staphylococcus aureus. In words: Antibacterial activity against Staphylococcus aureus MTCC 96 assessed as growth inhibition at 5 ug/disk after 24 hr by disk diffusion method. It counts as functional. The following applies: MTCC 96, 24 h, read-out: DIZ. (In general: In agar diffusion tests the substance spreads into inoculated agar from a disc or well.)
Experiment [3] relates to Pseudomonas aeruginosa. The experiment can be described thus: Antibacterial activity against Pseudomonas aeruginosa MTCC 2642 assessed as growth inhibition at 5 ug/disk after 24 hr by disk diffusion method. Conditions: MTCC 2642, 24 h, read-out: DIZ. Type of experiment: functional.
For experiment [4], the system named is Salmonella typhi. In words: Antibacterial activity against Salmonella enterica subsp. enterica serovar Typhi MTCC 1251 assessed as growth inhibition at 5 ug/disk after 24 hr by disk diffusion method. Type of experiment: functional. Conditions: MTCC 1251, 24 h, read-out: DIZ.
In experiment [5] the test system is Escherichia coli. In words: Antibacterial activity against Escherichia coli MTCC 82 assessed as growth inhibition at 5 ug/disk after 24 hr by disk diffusion method. Type of experiment: functional. Conditions: MTCC 82, 24 h, read-out: DIZ.
The next experiment concerns OVCAR-5. In words: Cytotoxicity against Homo sapiens (human) OVCAR5 cells assessed as growth inhibition at 1 uM after 48 hr by SRB assay. Type of experiment: functional. The following applies: OVCAR-5, 48 h, read-out: GI. (In general: In SRB staining, fixed cells bind dye roughly in proportion to their protein.)
In another experiment the test system is MCF7. In words: Cytotoxicity against Homo sapiens (human) MCF7 cells assessed as growth inhibition at 1 uM after 48 hr by SRB assay. Type of experiment: functional. The following applies: MCF7, 48 h, read-out: GI.
For experiment [6], the system named is Bacillus subtilis. The experiment can be described thus: Antibacterial activity against Bacillus subtilis MTCC 2451 assessed as growth inhibition at 2 mg/mL after 24 hr by disk diffusion method. It counts as functional.
The test system of a further experiment is Goffeauzyma gastrica. The experiment can be described thus: Antifungal activity against Cryptococcus gastricus MTCC 1715 assessed as growth inhibition at 2 mg/mL after 48 hr by disk diffusion method. It counts as functional.
The subject of experiment [7] is Escherichia coli. In words: Antibacterial activity against Escherichia coli MTCC 82 assessed as growth inhibition at 2 mg/mL after 24 hr by disk diffusion method. It counts as functional.
Experiment [8] concerns Salmonella typhi. In words: Antibacterial activity against Salmonella enterica subsp. enterica serovar Typhi MTCC 1251 assessed as growth inhibition at 2 mg/mL after 24 hr by disk diffusion method. Type of experiment: functional, organism-based.
The test system of experiment [9] is Pseudomonas aeruginosa. In words: Antibacterial activity against Pseudomonas aeruginosa MTCC 2642 assessed as growth inhibition at 2 mg/mL after 24 hr by disk diffusion method. The following applies: MTCC 2642, 24 h, read-out: DIZ. Type of experiment: functional.
A further experiment concerns Candida albicans. In words: Antifungal activity against Candida albicans MTCC 3018 assessed as growth inhibition at 2 mg/mL after 48 hr by disk diffusion method. It counts as functional.
In a further experiment the test system is Saccharomyces cerevisiae. In words: Antifungal activity against Saccharomyces cerevisiae MTCC 172 assessed as growth inhibition at 2 mg/mL after 48 hr by disk diffusion method. Type of experiment: functional.
Experiment [10] has as its system Staphylococcus aureus. The experiment can be described thus: Antibacterial activity against Staphylococcus aureus MTCC 96 assessed as growth inhibition at 2 mg/mL after 24 hr by disk diffusion method. It counts as functional. Conditions: MTCC 96, 24 h, read-out: DIZ.
The subject of the next experiment is THP-1. The experiment can be described thus: Cytotoxicity against Homo sapiens (human) THP1 cells assessed as growth inhibition at 20 uM after 48 hr by SRB assay. It counts as functional. Conditions: THP-1, 48 h, read-out: GI.
Another experiment has as its system CV-1. In words: Cytotoxicity against Chlorocebus aethiops (African green monkey) CV1 cells assessed as growth inhibition at 20 uM after 48 hr by SRB assay. Type of experiment: functional. The following applies: CV-1, 48 h, read-out: GI.
Another experiment concerns A549. The experiment can be described thus: Cytotoxicity against Homo sapiens (human) A549 cells assessed as growth inhibition at 20 uM after 48 hr by SRB assay. Type of experiment: functional. The following applies: A549, 48 h, read-out: GI.
The test system of another experiment is HEp-2. The experiment can be described thus: Cytotoxicity against Homo sapiens (human) Hep2 cells assessed as growth inhibition at 20 uM after 48 hr by SRB assay. The following applies: HEp-2, 48 h, read-out: GI. Type of experiment: functional.

`CC1(C)S[C@@H]2[C@H](NC(=O)[C@H](N)c3ccc(O)cc3)C(=O)N2[C@H]1C(=O)O` [AMOXICILLIN]: the zone of inhibition at 5 µg/disc in the experiment on Bacillus subtilis [1] was 20 mm; with Staphylococcus aureus [2] it was 21 mm; in the experiment with Pseudomonas aeruginosa [3], 19 mm; with Salmonella typhi [4] it was 18 mm; in the experiment on Escherichia coli [5], 20 mm.

Consider `CO[C@@]12[C@H](COC(N)=O)C3=C(C(=O)C(C)=C(N)C3=O)N1C[C@@H]1N[C@@H]12` [MITOMYCIN], for which the results for the inhibition of growth at 1 µM in the experiment on OVCAR-5 and with MCF7 were 71% and 82%, respectively.

For `CC(C)[C@@H](C)/C=C/[C@@H](C)[C@H]1CC[C@H]2C3=CC=C4C[C@@H](O)CC[C@]4(C)[C@H]3CC[C@]12C` [ERGOSTEROL], the “growth inhibition (GI)” value in the experiment on Bacillus subtilis [6], in the experiment with Goffeauzyma gastrica, with Escherichia coli [7], with Salmonella typhi [8], in the experiment with Candida albicans and in the experiment on Saccharomyces cerevisiae was “inactive” throughout. The zone of inhibition at 2000 µg/mL came out at 8.7 mm with Pseudomonas aeruginosa [9] and 11.2 mm in the experiment with Staphylococcus aureus [10].

As to `O=c1[nH]cc(F)c(=O)[nH]1` [FLUOROURACIL], the inhibition of growth at 20 µM with THP-1 came out at 79%; with CV-1, 43%; in the experiment on A549, 79%; with HEp-2, 87%.
